The values that follow come from patent publication US20140158116A1, “INHIBITING TRPA1 FOR THE TREATMENT OF ASTHMA” (Cubist Pharmaceuticals, Inc., priority 2012, published 2014).

Read-outs that look alike come from different tables or passages of the source.

One assay has as its target rTRPA1 (Rattus norvegicus, UniProt Q6RI86). As to the kind of experiment: Whole-cell patch clamp block of inward current through rTRPA1. It is filed as cell-based. On the procedure:
Data for TRPA1 inhibition and the selectivity of TRPA1 inhibition was obtained by this method for the compound of Formula (Ia) and included in Table 1 and Table 2. All currents were recorded in whole-cell configuration using EPC-9 and EPC-10 amplifiers and Patchmaster software (HEKA). […] The standard pipette solution consisted of 140 mM CsAsp, 10 mM EGTA, 10 mM HEPES, 2.27 mM MgCl2, 1.91 mM CaCl2, 4 mM MgATP, and 0.1-0.3 mM Na2GTP, with pH adjusted to 7.2 with CsOH. In addition, a solution containing 145 mM CsCl, 10 mM HEPES, 10 mM EGTA and 1 mM MgCl2 (pH 7.2 adjusted with CsOH) can be used. The standard bath solution contained 150 mM NaCl, 10 mM HEPES, 10 mM glucose, 4.5 mM KCl, 1 mM EGTA, 3 mM MgCl2, with pH adjusted to 7.4 with NaOH. In some instances, 2 mM CaCl2 was added in place of EGTA and the concentration of MgCl2 was reduced to 1 mM.
Data were collected either by continuous recordings at −60 mV or by applying voltage ramps from a holding potential of 0 mV every 4 s. Continuous recordings were collected at 400 Hz and digitally filtered off-line at 10 Hz for presentation. Voltage ramps were applied from −100 mV to 100 mV over the course of 400 ms, and data were collected at 10 kHz and filtered at 2.9 kHz. Inward and outward currents were analyzed from the ramps at −80 and 80 mV, respectively. Liquid junction potential correction was not used.
Solutions were switched using a gravity-fed continuous focal perfusion system. To achieve rapid temperature changes, two temperature control and perfusion systems were employed simultaneously. For temperatures ≧22° C., a Warner Instruments bipolar temperature controller (TC-344B) and inline heater (SHM-8) were used. […] Temperatures were confirmed using a thermistor (Warner Instruments, TA-29), with temperatures at the recorded cell estimated to be within +/−2° C. of those reported.
IC50 of compounds was estimated by testing each compound at 5 micromolar and 500 nanomolar. […] IC50 for compounds between 500 nanomolar and 5 micromolar was similarly estimated. […]
(The patch-clamp technique gives a direct electrical read-out from membranes.)

Assay [1] concerns Ascaris suum antigen-induced pulmonary resistance. As to the kind of experiment: Sheep allergic asthma model, pulmonary resistance (RL) after Ascaris suum antigen. It counts as in vivo. On the procedure:
Compounds were tested in the sheep model of experimental asthma reported in Abraham W M, Asthma & Rhinitis, 2000: 1205-1227 incorporated herein by reference in its entirety.
The unsedated sheep were restrained in a cart in the prone position with their heads immobilized. After topical anesthesia of the nasal passages with 2% lidocaine solution, a balloon catheter was advanced through one nostril into the lower esophagus. The sheep were intubated with a cuffed endotracheal tube through the other nostril. Pleural pressure was estimated with the esophageal balloon catheter. Lateral pressure in the trachea was measured with a sidehole catheter (inner dimension, 2.5 mm) advanced through and positioned distal to the tip of the endotracheal tube. Transpulmonary pressure, the difference between tracheal and pleural pressure, was measured with a differential pressure transducer catheter system. For the measurement of pulmonary resistance (RL), the proximal end of the endotracheal tube was connected to a pneumotachograph. […]
Baseline concentration response curves to aerosol Carbachol were obtained 1 to 3 days before commencement of drug/vehicle treatment. […] Baseline values of pulmonary resistance (RL) were obtained within 30 minutes of treatment and then re-measured 30 minutes before antigen challenge. […]

Chain of rTRPA1 (Q6RI86 whole entry): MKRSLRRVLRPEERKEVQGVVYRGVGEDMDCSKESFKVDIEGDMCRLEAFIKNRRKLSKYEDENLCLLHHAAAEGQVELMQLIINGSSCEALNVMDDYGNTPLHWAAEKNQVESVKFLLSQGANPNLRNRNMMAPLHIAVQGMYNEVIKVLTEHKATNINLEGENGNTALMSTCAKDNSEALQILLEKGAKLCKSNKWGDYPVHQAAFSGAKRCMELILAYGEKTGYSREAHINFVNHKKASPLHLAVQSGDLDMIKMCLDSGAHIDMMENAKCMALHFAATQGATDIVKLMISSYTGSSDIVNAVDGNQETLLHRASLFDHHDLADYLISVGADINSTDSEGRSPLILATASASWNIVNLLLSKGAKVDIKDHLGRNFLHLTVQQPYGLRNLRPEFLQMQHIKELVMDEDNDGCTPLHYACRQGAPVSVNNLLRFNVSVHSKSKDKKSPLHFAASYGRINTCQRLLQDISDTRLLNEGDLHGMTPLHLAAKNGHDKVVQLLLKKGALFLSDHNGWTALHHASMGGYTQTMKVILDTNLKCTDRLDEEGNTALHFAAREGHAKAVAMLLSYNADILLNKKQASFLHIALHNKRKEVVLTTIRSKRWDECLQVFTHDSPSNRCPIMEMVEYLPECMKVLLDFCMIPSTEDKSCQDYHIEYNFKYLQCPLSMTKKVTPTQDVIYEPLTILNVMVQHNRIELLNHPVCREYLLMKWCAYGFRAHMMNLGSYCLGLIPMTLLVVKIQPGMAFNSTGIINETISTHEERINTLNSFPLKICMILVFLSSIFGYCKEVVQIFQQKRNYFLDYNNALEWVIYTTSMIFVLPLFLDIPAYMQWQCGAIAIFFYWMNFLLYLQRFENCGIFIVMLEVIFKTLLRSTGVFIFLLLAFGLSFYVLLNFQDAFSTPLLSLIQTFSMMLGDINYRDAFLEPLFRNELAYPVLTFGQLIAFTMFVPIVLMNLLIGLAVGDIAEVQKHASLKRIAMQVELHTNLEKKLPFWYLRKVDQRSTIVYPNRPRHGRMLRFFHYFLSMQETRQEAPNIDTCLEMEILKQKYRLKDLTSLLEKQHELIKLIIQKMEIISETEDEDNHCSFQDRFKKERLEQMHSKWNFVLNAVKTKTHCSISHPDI

Consider `C[C@H]1CCCN1c1ncc(-c2cccc(NC(=O)Cn3cnc4c3c(=O)n(C)c(=O)n4C)n2)cn1` [Formula (Ia)], for which the concentration for half-maximal inhibition (IC50) (commonly the concentration that inhibits the measured activity by half) on rTRPA1 (class symbol, read-out: Potency (IC50) Rat) is no less than 100 nM; at rTRPA1 (rTRPA1, Rat, current activation 10 micromolar AITC, read-out: IC50 Inward current), 101 ± 8 nM. Moreover, the “inhibition of late phase pulmonary resistance response” value in assay [1] (5 mg/kg PO daily for 4 days) is roughly 45%; in assay [1] (10 mg/kg PO daily for 4 days), “approximately 75%”.
